For eleven compounds, activity change, negative = inhibition and AC50 results are on record in PubChem BioAssay AID488950 (Broad Institute, 2010).

Molecules are shown by their SMILES. Several values for one entry are separate records, joined by “and”; a condition that tells them apart may be missing. Equal entries are not always repeated. Records with an inconclusive call do not appear. Activity calls are given as the source filed them.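 How the source made its calls: active means fitted half-maximal dose for growth inhibition no higher than ten times the top tested dose; inconclusive means flat curve with 30 to 70% inhibition, or poor fit; inactive means the rest.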

System in the first test: not listed separately
Put plainly: fluconazole-resistant Candida strain growth inhibitors – CaCi-8 strain, dry powder, set 4, dose response (AID 488950). The note with it: C. albicans CaCi-8 + fluconazole, Alamar Blue growth, 48 h; at 26 µM (top of the series). In general terms: Resazurin is reduced to fluorescent resorufin, in cell work by metabolically active cells.
In the case of `Clc1ccc2c(N3CCNCC3)ccnc2c1`, the activity change, negative = inhibition was 7.46% (inactive).
Still for that read-out and setting: next, `COc1cccnc1N1CCN(C(=O)c2ccc(Cl)cc2)CC1`: -25% (inactive).
On the same count and under the same terms, the value for `COc1cccc2c(N3CCN(C(=O)c4ccc(Cl)cc4)CC3)cc(C)nc12` was -22.9% (inactive).
Still for that read-out and setting: next, `O=S(=O)(c1ccc(Cl)cc1)N1CCN(c2ccnc3cc(Cl)ccc23)CC1`: -2.18% (inactive).
For the compound `O=C(c1ccc(Cl)cc1)N1CCNCC1`, the activity change, negative = inhibition was 4.63% (inactive).
The same measure, in the same setting: next, `CC(C)C(=O)N1CCN(c2ccnc3cc(Cl)ccc23)CC1`: -25.6% (inactive); `O=C(c1ccc(Cl)cc1)N1CCN(c2ccncc2)CC1`: -2.65% (inactive).
For `O=C(c1ccc(Cl)cc1)N1CCN(c2cc(C(F)(F)F)nc3ccccc23)CC1`, the activity change, negative = inhibition is -54.5% (inactive).
Turning to `Cc1cc(N2CCN(C(=O)c3ccc(Cl)cc3)CC2)c2ccccc2n1`, the activity change, negative = inhibition was 6.54% (inactive).

The subject of the next test is C. albicans CaCi-8 + fluconazole, Alamar Blue growth, 48 h. The description is as above.
Settings: not given
In general, AC50 refers to the concentration at which the activity in the assay is half-maximal. Regarding `O=C(c1ccc(Cl)cc1)N1CCN(c2ccccn2)CC1`, the AC50 is 9.14 µM and 13.8 µM and 19.9 µM.
Still for that read-out and setting: the value for `O=C(c1ccc(Cl)cc1)N1CCN(c2ccnc3cc(Cl)ccc23)CC1` was 0.179 µM and 0.6 µM.
